Data taken from ChEMBL document CHEMBL4000248, “Synthesis and biological evaluation of cyclic imides incorporating benzenesulfonamide moieties as carbonic anhydrase I, II, IV and IX inhibitors” (Bioorg Med Chem, 2017).

Target: Carbonic anhydrase 9 (Homo sapiens, UniProt Q16790)
Assay: Inhibition of recombinant human carbonic anhydrase 9 incubated for 10 mins prior to testing by stopped flow CO2 hydrase assay

| Ki | Structure (SMILES) |
| --- | --- |
| 2.39 µM | NS(=O)(=O)c1ccc(CCN2C(=O)c3c(Br)c(Br)c(Br)c(Br)c3C2=O)cc1 |
| 0.459 µM | CC(C)(C)c1ccc2c(c1)C(=O)N(CCc1ccc(S(N)(=O)=O)cc1)C2=O |
| 0.0137 µM | NS(=O)(=O)c1ccc(N2C(=O)C3C(C2=O)C2(Cl)C(Cl)=C(Cl)C3(Cl)C2(Cl)Cl)cc1 (centres undefined) |
| 0.0169 µM | NS(=O)(=O)c1ccc(CN2C(=O)C3C(C2=O)C2(Cl)C(Cl)=C(Cl)C3(Cl)C2(Cl)Cl)cc1 (centres undefined) |
| 0.428 µM | NS(=O)(=O)c1ccc(CCN2C(=O)c3cc(Cl)c(Cl)cc3C2=O)cc1 |
| 0.296 µM | NS(=O)(=O)c1ccc(CCN2C(=O)c3ccccc3C2=O)cc1 |
| 0.296 µM | NS(=O)(=O)c1ccc(CCN2C(=O)[C@H]3CC=CC[C@H]3C2=O)cc1 |
| 0.274 µM | NS(=O)(=O)c1ccc(CCN2C(=O)C=CC2=O)cc1 |
| 2.67 µM | NS(=O)(=O)c1ccc(CCN2C(=O)c3cccc([N+](=O)[O-])c3C2=O)cc1 |
| 0.114 µM | NS(=O)(=O)c1ccc(CCN2C(=O)C3C(C2=O)C2(Cl)C(Cl)=C(Cl)C3(Cl)C2(Cl)Cl)cc1 (centres undefined) |
| 4.19 µM | NS(=O)(=O)c1ccc(CCN2C(=O)c3nccnc3C2=O)cc1 |
| 1.64 µM | NS(=O)(=O)c1ccc(CCN2C(=O)c3ccc([N+](=O)[O-])cc3C2=O)cc1 |
| 0.39 µM | Cc1ccc2c(c1)C(=O)N(CCc1ccc(S(N)(=O)=O)cc1)C2=O |
| 0.296 µM | NS(=O)(=O)c1ccc(CCN2C(=O)CCC2=O)cc1 |
